In US20220257552A1, “METHODS OF PRESCREENING AND TREATING BREAST CANCERS WITH SELECTIVE ANDROGEN RECEPTOR MODULATORS” (priority 2021, published 2022):

Assays:
[1] = tested on: TNBC; settings: with nab-paclitaxel; cited from earlier work
[2] = tested on: TNBC; settings: plus chemotherapy arm; cited from earlier work
[3] = tested on: breast cancer specimens obtained from patients; assay: Breast cancer patient specimens, ex vivo sponge culture; assay type: cell-based, human; settings: 1 μM Formula IX, 100 nM fulvestrant, 3 days
Description: Specimens from breast cancer patients were collected with patient consent under a protocol approved by the UTHSC Institutional Review Board (IRB). Specimens were collected immediately after surgery in RPMI medium containing penicillin:streptomycin and Fungizone and transported to the laboratory on ice. The tissues were finely minced and treated with collagenase for 2 hours.
(§1) HCI-13 tumors grown in female mice were allowed to reach 500-1000 mm^3 before the animals were sacrificed and the tumors were excised to be used for sponge culture. Patient specimens frozen in liquid nitrogen in freezing medium were used for sponge culture. […] Tumors were sliced into small pieces (˜1 mm^3) and incubated on pre-soaked gelatin sponges (5 fragments/sponge) in 12 well plates containing 1.5 mL medium (MEM+10% FBS+2 mM L-glutamine+10 μg/mL insulin+10 μg/mL hydrocortisone+penicillin:streptomycin). The cultures were performed in triplicates for HCI-13 and singly for patient specimens. Pooled samples (n=5/sponge) from each sponge constituted one sample. Tissues were harvested after 3 days of treatment, RNA extracted, and expression of various genes measured. Although the same procedure was adopted for specimens obtained from breast cancer patients, the specimens were cultured singly (n=5/sponge=one sample) and not in triplicates as performed for HCI-13.
Like other cancers, breast cancer is also heterogeneous in its genomic profile as well as in its response to treatments. […] Three days after treatment, RNA was isolated from the tissues and expression of ER- and AR-target genes was measured.

[4] = tested on: metastatic ER+/HER2- breast cancer; settings: cited from earlier work
[5] = target: Wildtype ER-α (Homo sapiens, UniProt P03372); settings: 10 nM fulvestrant or 1 μM tamoxifen with 0.1 nM estradiol
Wildtype ER-α, sequence (P03372 whole entry, species assumed): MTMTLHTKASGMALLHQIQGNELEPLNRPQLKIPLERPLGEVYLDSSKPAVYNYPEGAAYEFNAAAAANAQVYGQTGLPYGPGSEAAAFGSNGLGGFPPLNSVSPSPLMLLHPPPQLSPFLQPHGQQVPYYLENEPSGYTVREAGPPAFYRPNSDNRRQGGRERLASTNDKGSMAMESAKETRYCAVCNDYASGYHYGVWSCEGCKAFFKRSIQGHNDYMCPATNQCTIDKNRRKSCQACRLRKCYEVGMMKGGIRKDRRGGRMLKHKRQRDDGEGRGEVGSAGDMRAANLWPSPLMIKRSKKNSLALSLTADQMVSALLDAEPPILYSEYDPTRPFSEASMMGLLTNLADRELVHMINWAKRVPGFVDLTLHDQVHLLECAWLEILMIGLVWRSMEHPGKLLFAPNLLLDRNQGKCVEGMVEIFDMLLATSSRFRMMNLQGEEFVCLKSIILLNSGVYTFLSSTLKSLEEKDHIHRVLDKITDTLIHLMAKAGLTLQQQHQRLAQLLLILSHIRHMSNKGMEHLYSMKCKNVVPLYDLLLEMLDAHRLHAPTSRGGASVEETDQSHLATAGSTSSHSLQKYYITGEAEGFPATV
Description: (§2) After 6 days of treatment, cells were harvested, and the number of cells was counted. […] Medium was changed after 3 days and re-treated. Cells were fixed after 6 days of treatment and the cell viability was measured by SRB assay. […] Medium was changed, and the cells were re-treated on days 4 and 7. Medium was collected, pooled from triplicates, and stored in −80° C. After 10 days of treatment, cells were fixed, and cell viability was measured using SRB. MCF-7 cells stably transfected with GFP (MCF-7-GFP) were plated in growth medium. Twenty-four hours after plating, cells were fed with the conditioned medium obtained from patient-derived fibroblasts as indicated above. Cells were fed for 10 days with conditioned medium, with medium changed on days 4 and 7. After 10 days of treatment, cells were fixed, and the viability was measured by SRB assay. […] AR-positive, but ER-negative HCI-9 PDX was surgically implanted as 1 mm^3 fragments under the mammary fat pad in NSG mice (n=8-10/group). […] Tumor volume was measured thrice weekly. […] ER-α from HCI-13 was cloned into pCR3.1 vector. Wildtype ER-α and HCI-13 ER-α, ERE-LUC, and CMV-LUC were transfected into COS-1 cells using lipofectamine. […] Twenty four hours after treatment cells were harvested and luciferase assay was performed. […] Values are expressed as average±S.E. from n=3-4/data point.

[6] = target: HCI-13 ER-α (Homo sapiens, UniProt P03372, Y537S); settings: 10 nM fulvestrant or 1 μM tamoxifen with 0.1 nM estradiol
HCI-13 ER-α, sequence (P03372 whole entry Y537S): as the sequence (P03372 whole entry, species assumed) above, with Y537S counted along it
Description: as §2

[7] = tested on: HCI-13 tumor fragments; assay: HCI-13 ex vivo sponge culture, real time PCR; assay type: cell-based; settings: 10 nM DHT, 1 μM Formula IX, 100 nM fulvestrant, 3 days
Description: as §1

[8] = tested on: MCF-7-GFP cells; assay type: cell-based, human; settings: 10 days
From the text: Tumor microenvironment contains tumor epithelial cells, stromal cells, cancer-associated fibroblasts (CAFs), and endothelial cells. The collective function of these cells promotes the aggressive growth of tumors due to secretion of paracrine factors. The CAFs are important for the sustained growth of cancers, and they differ from normal fibroblasts in their capacity to secrete factors that promote proliferation of cancer cells. […] Medium was collected over a period of 10 days and pooled. CAFs were stained with SRB to evaluate the effect of AR ligands on proliferation.
Conditioned medium was replaced on days 4 and 7 and the cells were stained with SRB to measure viability.

[9] = tested on: HCI-9 PDX; assay: HCI-9 patient-derived xenograft in NSG mice; assay type: in vivo; settings: Formula IX 10 mpk, enzalutamide 30 mpk p.o.
Description: (§3) All animal protocols were approved by The University of Tennessee Health Science Center (UTHSC) Institutional Animal Care and Use Research Committee. Xenograft experiments were performed as previously published (Narayanan et al. (2014) PLoS One 9, e103202). Briefly, 3 million MCF-7 cells were suspended in 0.05 ml MEM+10% FBS and 0.05 ml Matrigel/nude mouse and were injected subcutaneously. Once the tumor size reached 100-200 mm^3, the animals were randomized and treated orally with the indicated drugs formulated in DMSO:PEG-300 (15:85). HCI-7, HCI-9, and HCI-13 PDXs were gifts kindly donated by Dr. Alana Welm (Huntsman Cancer Institute, Salt Lake City, Utah). HCI PDX tumor fragments (1 mm^3) were surgically implanted under the mammary fat pad in female NOD SCID Gamma (NSG) mice. Tumor volume was measured twice weekly for MCF-7 xenograft and once or twice weekly for HCI PDXs. At the end of the study, animals were sacrificed and tumors were excised, weighed, and stored for various analyses.
To determine if the same effect is observed in an AR-positive, but ER-negative breast cancer, HCI-9 tumor fragments were implanted under the mammary fat pad of NSG mice.

[10] = tested on: BR-0001 TNBC; assay: BR-0001 AR-positive TNBC xenograft in NSG mice; assay type: in vivo; settings: 10 mg/kg/day Formula IX or enzalutamide orally
Description: Xenograft experiment. NSG mice obtained from JAX labs were housed with five animals per cage and were allowed free access to tap water and commercial rat chow (Harlan Teklad 22/5 rodent diet—8640). During the course of the study, the animals were maintained on a 12 hr light:dark cycle. Animals were anesthetized and BR-0001 TNBC fragments of 1 mm^3 (approximately) were implanted subcutaneously in NSG mice. […] Tumor volume was measured thrice weekly. Tumor volume was calculated using the formula length×width×width×0.5236. Once tumors reached greater than 1500-2000 mm^3, animals were sacrificed and tumors weighted and stored for various analysis. Two regions of the same BR-0001 tumor, an AR-positive TNBC xenograft, were immunohistochemically stained with AR antibody (AR N20 from SCBT) (FIGS. 26A and 26B) and compared to an AR-negative (FIG. 26C) TNBC as a negative control. […] The tumor xenograft efficacy experimental results are provided in 27A-27C, with FIGS. 27A and 27B being replicate experiments.
Tumors from replicate experiment 2 (FIG. 27B) were fixed in formalin and paraffin embedded. Slides were cut and stained with Ki-67 antibody. Ki-67 positive cells (total 200 cells were counted in each slide) in each slide were counted and represented as % stained cells, as shown in FIG. 28B.

[11] = tested on: HCI-7 PDX; assay: HCI-7 (HCI-007) patient-derived xenograft in NSG mice; assay type: in vivo; settings: Formula IX 10 mg/kg, enzalutamide 20 mg/kg, orally, vs vehicle
Description: HCI-007 tumor pieces (1 mm^3) were implanted surgically (one per mouse) under the skin on the flanks of NSG mice. Simultaneously, 17β-estradiol pellet (Innovative Research of America) was implanted surgically under the skin of each mouse. Tumors were allowed to grow and reach approximately 100 mm^3 volume (1*W*W*0.526). […] Tumor volume was measured weekly and represented as % change in tumor volume (FIG. 32). Mice were sacrificed and tumors stored for further analysis.
as §3
From the several PDXs available, three AR-positive PDXs were identified, based on gene expression profile. […] The enzalutamide dose was selected based on previous published experiments (Park et al. (2016) Cancer Invest 34, 517-520; Pollock et al. (2016) Nat Chem Biol 12, 795-801) as well as from internal experiments conducted in prostate cancer xenografts and in Hershberger studies.

**Q.** For atezolizumab: PD-L1 blocking antibody, which “Median progression-free survival (PFS)” value [1] is on record?
**A.** 7.4 months

**Q.** With pembrolizumab: PD-L1 blocking antibody as the molecule, how does the “median PFS” value [2] read?
**A.** 9.7 months

**Q.** What does the source list for `C[C@]12CC[C@@H]3c4ccc(O)cc4C[C@@H](CCCCCCCCC[S+]([O-])CCCC(F)(F)C(F)(F)F)[C@H]3[C@@H]1CC[C@@H]2O` (stereo partly shown) [fulvestrant]?
**A.** specimens in which ER function was inhibited [3]: 4 of 8; median PFS range ([4]; after failing one estrogen blocking therapy): 4.6-9.3 months; objective response rate ([4]; depending on the trial): 10.9%-21.3%; ER activity [5]: inhibited; ER activity [6]: not inhibited; inhibition of ER-induced pS2 and PR gene expression [7]: ineffective

**Q.** With `CNC(=O)c1ccc(N2C(=S)N(c3ccc(C#N)c(C(F)(F)F)c3)C(=O)C2(C)C)cc1F` [enzalutamide, reference compound] as the molecule, how does the “proliferation of breast cancer CAFs” value ([8]; 10 nM DHT, 1 μM Formula IX, 1 μM enzalutamide) read?
**A.** neither AR agonist, DHT and Formula IX, nor AR antagonist enzalutamide, affected the proliferation

**Q.** What about the “proliferation of MCF-7-GFP cells fed conditioned medium from treated CAFs” value [8] of the same molecule?
**A.** not

**Q.** What about the tumor growth trajectory [9] of the same molecule?
**A.** Neither Formula IX nor enzalutamide altered the growth trajectory

**Q.** What about the tumor growth [10] of the same molecule?
**A.** indistinguishable from vehicle treatment

**Q.** What about the “tumor growth (% change in tumor volume)” value [11] of the same molecule?
**A.** grew comparably
